Experimental data reported in patent US8541588B2, “Sulfonamide derivatives” (Pfizer Limited, priority 2009, dated 2013).
Each block holds one compound with its values, some of them ahead of it.

Target: T1, Nav1.7 (or SCN9A) channel; HEK cells stably transfected with hSCN9A (Homo sapiens, UniProt Q15858)
T1 construct: expressed in transfected cells
Experiment: Nav1.7 block, PatchXpress 7000 automated whole-cell voltage clamp, estimated IC50 (EIC50)
Format: cell-based
Details: estimated IC50, PatchXpress platform

[1] = hSCN9A HEK cells, Examples 283-814
[2] = hSCN9A HEK cells, Examples 815-1040
[3] = hSCN9A HEK cells held at V1/2 of inactivation

T1 sequence (Q15858 whole entry): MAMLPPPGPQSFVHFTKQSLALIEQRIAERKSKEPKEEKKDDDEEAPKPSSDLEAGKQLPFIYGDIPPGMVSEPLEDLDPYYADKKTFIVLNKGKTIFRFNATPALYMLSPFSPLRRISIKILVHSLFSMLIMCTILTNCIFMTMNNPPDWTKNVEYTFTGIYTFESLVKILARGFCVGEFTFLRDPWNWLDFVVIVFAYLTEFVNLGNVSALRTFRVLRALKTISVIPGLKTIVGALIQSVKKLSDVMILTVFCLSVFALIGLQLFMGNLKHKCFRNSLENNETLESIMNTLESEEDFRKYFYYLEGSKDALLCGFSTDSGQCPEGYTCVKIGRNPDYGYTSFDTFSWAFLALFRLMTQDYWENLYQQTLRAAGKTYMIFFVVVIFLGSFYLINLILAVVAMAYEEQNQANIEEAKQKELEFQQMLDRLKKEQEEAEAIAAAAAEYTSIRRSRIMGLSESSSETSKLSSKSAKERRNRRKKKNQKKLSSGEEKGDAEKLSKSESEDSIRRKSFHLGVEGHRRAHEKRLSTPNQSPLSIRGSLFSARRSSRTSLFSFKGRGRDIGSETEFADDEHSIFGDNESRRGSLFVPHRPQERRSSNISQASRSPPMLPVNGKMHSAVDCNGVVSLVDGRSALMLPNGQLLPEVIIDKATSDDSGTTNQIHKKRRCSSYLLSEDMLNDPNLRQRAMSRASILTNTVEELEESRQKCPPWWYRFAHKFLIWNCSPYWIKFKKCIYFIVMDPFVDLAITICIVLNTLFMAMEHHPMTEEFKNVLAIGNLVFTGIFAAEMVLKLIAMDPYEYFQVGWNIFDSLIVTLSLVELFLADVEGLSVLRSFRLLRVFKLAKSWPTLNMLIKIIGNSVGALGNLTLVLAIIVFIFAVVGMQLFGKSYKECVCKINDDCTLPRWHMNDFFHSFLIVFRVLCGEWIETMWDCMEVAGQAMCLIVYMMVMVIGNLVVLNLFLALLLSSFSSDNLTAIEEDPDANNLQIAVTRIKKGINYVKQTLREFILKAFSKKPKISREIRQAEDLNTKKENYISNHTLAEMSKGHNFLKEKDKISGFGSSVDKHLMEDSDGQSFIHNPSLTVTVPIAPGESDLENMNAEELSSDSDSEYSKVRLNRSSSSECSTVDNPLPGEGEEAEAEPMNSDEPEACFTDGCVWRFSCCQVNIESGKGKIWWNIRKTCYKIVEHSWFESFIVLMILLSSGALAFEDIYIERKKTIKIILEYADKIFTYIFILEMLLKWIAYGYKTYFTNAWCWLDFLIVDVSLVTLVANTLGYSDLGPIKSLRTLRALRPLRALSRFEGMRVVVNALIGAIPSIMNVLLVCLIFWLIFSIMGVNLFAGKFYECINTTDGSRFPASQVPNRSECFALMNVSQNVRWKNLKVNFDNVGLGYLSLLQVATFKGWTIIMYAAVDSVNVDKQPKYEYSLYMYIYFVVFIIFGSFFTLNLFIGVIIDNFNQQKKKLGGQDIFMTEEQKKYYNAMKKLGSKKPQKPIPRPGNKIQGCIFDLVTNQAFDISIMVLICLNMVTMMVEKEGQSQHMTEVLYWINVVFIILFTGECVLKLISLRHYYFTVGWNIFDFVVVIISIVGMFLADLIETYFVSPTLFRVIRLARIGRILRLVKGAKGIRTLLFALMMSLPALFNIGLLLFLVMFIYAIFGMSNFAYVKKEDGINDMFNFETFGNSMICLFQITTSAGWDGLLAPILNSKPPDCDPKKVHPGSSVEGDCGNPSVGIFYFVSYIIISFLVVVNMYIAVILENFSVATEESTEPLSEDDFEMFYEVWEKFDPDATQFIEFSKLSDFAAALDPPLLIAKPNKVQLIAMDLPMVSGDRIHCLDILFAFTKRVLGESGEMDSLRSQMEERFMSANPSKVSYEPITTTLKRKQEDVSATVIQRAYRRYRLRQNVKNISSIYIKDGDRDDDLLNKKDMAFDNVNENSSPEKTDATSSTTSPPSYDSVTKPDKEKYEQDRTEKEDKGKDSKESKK

IC50 [1]: 360 nM
Compound: N#Cc1cc(S(=O)(=O)Nc2nccs2)ccc1Oc1ccc(Cl)cc1CN1CCC(F)(F)CC1 [Example 358, 4-{4-chloro-2-[(4,4-difluoropiperidin-1-yl)methyl]phenoxy}-3-cyano-N-1,3-thiazol-2-ylbenzenesulfonamide]

IC50 [1]: 490 nM
Compound: COc1cc(-c2cc(Cl)ccc2Oc2ccc(S(=O)(=O)Nc3nccs3)cc2C#N)n(C)n1 [Example 439, 4-[4-chloro-2-(3-methoxy-1-methyl-1H-pyrazol-5-yl)phenoxy]-3-cyano-N-1,3-thiazol-2-ylbenzenesulfonamide]

IC50 [1]: 19 nM
Compound: Nc1cccc(-c2cc(Cl)ccc2Oc2cc(F)c(S(=O)(=O)Nc3ncns3)cc2F)n1 [Example 409, 4-[2-(6-aminopyridin-2-yl)-4-chlorophenoxy]-2,5-difluoro-N-1,2,4-thiadiazol-5-ylbenzenesulfonamide]

IC50 [1]: 400 nM
Compound: N#Cc1cc(S(=O)(=O)Nc2nccs2)ccc1Oc1ccc(-n2nc(C(F)F)cc2CO)cc1 [Example 708, 3-cyano-4-{4-[3-(difluoromethyl)-5-(hydroxymethyl)-1H-pyrazol-1-yl]phenoxy}-N-1,3-thiazol-2-ylbenzenesulfonamide]

IC50 [2]: 190 nM
Compound: O=S(=O)(Nc1ncns1)c1ccc(Oc2ccc(Cl)cc2C2CCOCC2)c(F)c1 [Example 825, 4-[4-chloro-2-(tetrahydro-2H-pyran-4-yl)phenoxy]-3-fluoro-N-1,2,4-thiadiazol-5-ylbenzenesulfonamide]

IC50 [2]: 2.1 nM
Compound: N#Cc1cc(S(=O)(=O)Nc2nncs2)ccc1Oc1ccc(Cl)cc1-c1ccnc(N2CCNCC2)c1 [Example 835, 4-[4-chloro-2-(2-piperazin-1-ylpyridin-4-yl)phenoxy]-3-cyano-N-1,3,4-thiadiazol-2-ylbenzenesulfonamide]

IC50 [1]: >1000 nM
Compound: N#Cc1cc(S(=O)(=O)Nc2nccs2)ccc1Oc1ccc(-n2cc(F)cn2)cc1 [Example 774, 3-cyano-4-[4-(4-fluoro-1H-pyrazol-1-yl)phenoxy]-N-1,3-thiazol-2-ylbenzenesulfonamide]

IC50 [3]: 220 nM
Compound: Cc1cc(S(=O)(=O)Nc2ncns2)ccc1Oc1ccccc1-c1ccccc1 [Example 256, 4-(biphenyl-2-yloxy)-3-methyl-N-1,2,4-thiadiazol-5-ylbenzenesulfonamide]

IC50 [3]: 9190 nM
Compound: Cc1nc(-c2ccccc2Oc2ccc(S(=O)(=O)Nc3nccs3)cc2F)cs1 [Example 130, 3-fluoro-4-[2-(2-methyl-1,3-thiazol-4-yl)phenoxy]-N-1,3-thiazol-2-ylbenzenesulfonamide]

IC50 [2]: 170 nM
Compound: O=S(=O)(Nc1cscn1)c1ccc(Oc2ccc(Cl)cc2-c2ccn[nH]2)c(Cl)c1 [Example 911, 3-chloro-4-[4-chloro-2-(1H-pyrazol-5-yl)phenoxy]-N-1,3-thiazol-4-ylbenzenesulfonamide]

IC50 [3]: 21700 nM
Compound: Cc1cccc(-c2ccccc2F)c1Oc1ccc(S(=O)(=O)Nc2ncns2)cc1C#N [Example 43, 3-cyano-4-[(2′-fluoro-3-methylbiphenyl-2-yl)oxy]-N-1,2,4-thiadiazol-5-ylbenzenesulfonamide]

IC50 [1]: 1500 nM
Compound: Cn1nccc1-c1cc(Cl)ccc1Oc1ccc(S(=O)(=O)Nc2ncsc2F)cc1C#N [Example 602, 4-[4-chloro-2-(1-methyl-1H-pyrazol-5-yl)phenoxy]-3-cyano-N-(5-fluoro-1,3-thiazol-4-yl)benzenesulfonamide]

IC50 [1]: 1700 nM
Compound: Cn1nc(C(F)(F)F)cc1-c1ccc(Oc2ccc(S(=O)(=O)Nc3ncc(F)s3)cc2F)cc1 [Example 609, 3-fluoro-N-(5-fluoro-1,3-thiazol-2-yl)-4-{4-[1-methyl-3-(trifluoromethyl)-1H-pyrazol-5-yl]phenoxy}benzenesulfonamide]

IC50 [1]: 71 nM
Compound: N#Cc1cc(S(=O)(=O)Nc2nccs2)ccc1Oc1ccc(-c2cc(C(F)(F)F)nn2CCCF)cc1F [Example 551, 3-cyano-4-{2-fluoro-4-[1-(3-fluoropropyl)-3-(trifluoromethyl)-1H-pyrazol-5-yl]phenoxy}-N-1,3-thiazol-2-ylbenzenesulfonamide]

IC50 [3]: 110 nM
Compound: N#Cc1cc(S(=O)(=O)Nc2nccs2)ccc1Oc1cccc(Cl)c1-c1ccn[nH]1 [Example 199, 4-[3-chloro-2-(2H-pyrazol-3-yl)-phenoxy]-3-cyano-N-thiazol-2-yl-benzenesulfonamide]

IC50 [1]: 580 nM
Compound: N#Cc1cc(S(=O)(=O)Nc2nccs2)ccc1Oc1ccc(Cl)cc1CN1CCOCC1 [Example 493, 4-[4-chloro-2-(morpholin-4-ylmethyl)phenoxy]-3-cyano-N-1,3-thiazol-2-ylbenzenesulfonamide]

IC50 [1]: 240 nM
Compound: N#Cc1ccc(Oc2cc(F)c(S(=O)(=O)Nc3ncc(Cl)s3)cc2F)c(-c2cn[nH]c2)c1 [Example 771, N-(5-chloro-1,3-thiazol-2-yl)-4-[4-cyano-2-(1H-pyrazol-4-yl)phenoxy]-2,5-difluorobenzenesulfonamide]

IC50 [3]: 1810 nM
Compound: CCOC(=O)Cn1nc(Cc2ccc(Cl)cc2)cc1Oc1ccc(S(=O)(=O)Nc2ncns2)cc1C#N [Example 92, 3-(4-chloro-benzyl)-5-{2-cyano-4-(1,2,4-thiadiazol-5-ylsulfamoyl)-phenoxy}-pyrazol-1-yl-acetic acid ethyl ester]

IC50 [1]: 230 nM
Compound: N#Cc1cc(S(=O)(=O)Nc2cscn2)ccc1Oc1ccc(C(F)(F)F)cc1-c1cn[nH]c1 [Example 598, 3-cyano-4-[2-(1H-pyrazol-4-yl)-4-(trifluoromethyl)phenoxy]-N-1,3-thiazol-4-ylbenzenesulfonamide]

IC50 [2]: >10000 nM
Compound: COc1nccnc1NS(=O)(=O)c1ccc(Oc2ccc(Cl)cc2-c2ccnn2C)c(C#N)c1 [Example 916, 4-[4-chloro-2-(1-methyl-1H-pyrazol-5-yl)phenoxy]-3-cyano-N-(3-methoxypyrazin-2-yl)benzenesulfonamide]

IC50 [2]: 19 nM
Compound: Nc1cc(-c2cc(Cl)ccc2Oc2cc(F)c(S(=O)(=O)Nc3cscn3)cc2F)ccn1 [Example 1020, 4-[2-(2-aminopyridin-4-yl)-4-dchlorophenoxy]-2,5-ifluoro-N-1,3-thiazol-4-ylbenzenesulfonamide]

IC50 [3]: 100 nM
Compound: Cc1n[nH]cc1-c1ccccc1Oc1ccc(S(=O)(=O)Nc2nccs2)cc1C#N [Example 200, 3-cyano-4-(2-(3-methyl-1H-pyrazol-4-yl)phenoxy)-N-(thiazol-2-yl)benzenesulfonamide]

IC50 [1]: 340 nM
Compound: CCn1nc(C(F)(F)F)c(Cl)c1-c1ccc(Oc2ccc(S(=O)(=O)Nc3nccs3)cc2C#N)cc1 [Example 695, 4-{4-[4-chloro-1-ethyl-3-(trifluoromethyl)-1H-pyrazol-5-yl]phenoxy}-3-cyano-N-1,3-thiazol-2-ylbenzenesulfonamide]

IC50 [2]: 40 nM
Compound: N#Cc1ccc(-c2ccnnc2)c(Oc2cc(F)c(S(=O)(=O)Nc3ncns3)cc2Cl)c1 [Example 951, 5-chloro-4-(5-cyano-2-pyridazin-4-ylphenoxy)-2-fluoro-N-1,2,4-thiadiazol-5-ylbenzenesulfonamide]

IC50 [2]: >10000 nM
Compound: Cc1nonc1NS(=O)(=O)c1ccc(Oc2ccc(Cl)cc2-c2ccnn2C)c(C#N)c1 [Example 907, 4-[4-chloro-2-(1-methyl-1H-pyrazol-5-yl)phenoxy]-3-cyano-N-(4-methyl-1,2,5-oxadiazol-3-yl)benzenesulfonamide]

IC50 [1]: 13 nM
Compound: N#Cc1cc(S(=O)(=O)Nc2ncns2)ccc1Oc1cc(Cl)c(F)cc1-c1ccn[nH]1 [Example 751, 4-[5-chloro-4-fluoro-2-(1H-pyrazol-5-yl)phenoxy]-3-cyano-N-1,2,4-thiadiazol-5-ylbenzenesulfonamide]

IC50 [1]: 44 nM
Compound: Cn1nc(C(F)(F)F)cc1-c1ccc(Oc2ccc(S(=O)(=O)Nc3nccs3)cc2C#N)c(C#N)c1 [Example 292, 3-cyano-4-{2-cyano-4-[1-methyl-3-(trifluoromethyl)-1H-pyrazol-5-yl]phenoxy}-N-1,3-thiazol-2-ylbenzenesulfonamide]

IC50 [3]: 590 nM
Compound: O=S(=O)(Nc1nccs1)c1ccc(Oc2ccc(-c3ccccc3)cc2)cc1F [Example 209, 4-(biphenyl-4-yloxy)-2-fluoro-N-(thiazol-2-yl)benzenesulfonamide]

IC50 [2]: 14 nM
Compound: O=C(c1cccc(-c2cc(Cl)ccc2Oc2cc(F)c(S(=O)(=O)Nc3nncs3)cc2Cl)c1)N1CCC1 [Example 857, 4-{[3′-(azetidin-1-ylcarbonyl)-5-chlorobiphenyl-2-yl]oxy}-5-chloro-2-fluoro-N-1,3,4-thiadiazol-2-ylbenzenesulfonamide]

IC50 [1]: 3400 nM
Compound: N#Cc1cc(S(=O)(=O)Nc2nccs2)ccc1Oc1cnn(-c2cccc(C(F)(F)F)c2)c1 [Example 334, 3-cyano-N-1,3-thiazol-2-yl-4-({1-[3-(trifluoromethyl)phenyl]-1H-pyrazol-4-yl}oxy)benzenesulfonamide]

IC50 [3]: 33700 nM
Compound: Cc1snnc1NS(=O)(=O)c1ccc(Oc2ccccc2-c2ccccc2)c(C#N)c1 [Example 112, 4-(biphenyl-2-yloxy)-3-cyano-N-(5-methyl-1,2,3-thiadiazol-4-yl)benzenesulfonamide]

IC50 [3]: >10000 nM
Compound: N#Cc1cc(S(=O)(=O)Nc2ncns2)ccc1Oc1nccnc1-c1ccccc1 [Example 20, 3-cyano-4-[(3-phenylpyrazin-2-yl)oxy]-N-1,2,4-thiadiazol-5-ylbenzenesulfonamide]

IC50 [1]: 15 nM
Compound: CCc1ccc(Oc2ccc(S(=O)(=O)Nc3nccs3)cc2C#N)c(-c2ccnn2C)c1 [Example 350, 3-cyano-4-[4-ethyl-2-(1-methyl-1H-pyrazol-5-yl)phenoxy]-N-1,3-thiazol-2-ylbenzenesulfonamide]

IC50 [1]: 3.1 nM
Compound: N#Cc1cc(S(=O)(=O)Nc2ncns2)ccc1Oc1ccc(OC(F)(F)F)cc1-c1ccn[nH]1 [Example 793, 3-cyano-4-[2-(1H-pyrazol-5-yl)-4-(trifluoromethoxy)phenoxy]-N-1,2,4-thiadiazol-5-ylbenzenesulfonamide]

IC50 [2]: 5.9 nM
Compound: O=S(=O)(Nc1nncs1)c1cc(F)c(Oc2ccc(Cl)cc2-c2ccnc(N3CCNCC3)c2)cc1F [Example 833, 4-[4-chloro-2-(2-piperazin-1-ylpyridin-4-yl)phenoxy]-2,5-difluoro-N-1,3,4-thiadiazol-2-ylbenzenesulfonamide]
